Measured values published in patent publication US11579088B2, “Device and method for imaging shortwave infrared fluorescence” (Massachusetts Institute of Technology, priority 2016, dated 2023).

Test system: liver
Test: Detection of indocyanine green across SWIR wavelengths in vivo (hepatobiliary clearance)
Details: mouse, intravenous 1.7 mg/kg, SWIR fluorescence detection
Description: When injected into a living system, indocyanine green is metabolized by the liver and excreted by the liver and bile ducts by a process called hepatobiliary clearance. This process was observed, noninvasively, by injecting a solution of indocyanine green intravenously into a mouse and using an SWIR imaging system as described herein to observe the fluorescence of indocyanine green. The dye was injected at a dose of 1.7 mg/kg which is below the maximum recommended dose of indocyanine green in humans. […] Despite the fact that 1500 nm is far from the peak emission of indocyanine green, there is sufficient emission intensity from the tail of the emission peak in this wavelength region to obtain a SWIR fluorescence image. Separately, hepatobiliary excretion of ICG into the small intestine in a mouse was also imaged using a near video rate imaging of 19.7 frames per second using a 1200 nm long-pass filter, which enabled capturing the peristaltic movements of the small intestine. Although the frame rate was slower, 2.0 frames per second, it was possible to image the ICG clearance using a 1500 nm long-pass filter, capturing wavelengths between roughly 1500 and 1620 nm.

accumulation in the liver: observed
SMILES: CC1(C)C(/C=C/C=C/C=C/C=C2\N(CCCCS(=O)(=O)O)c3ccc4ccccc4c3C2(C)C)=[N+](CCCCS(=O)(=O)[O-])c2ccc3ccccc3c21 [ICG, indocyanine green]
